In patent publication US7485646B2, “Serotonin 5-HT3 receptor agonist” (Research Foundation Itsuu Laboratory, priority 2004, dated 2009):
Where “and” joins values, the source holds several entries; their conditions need not be identical. Identical values can stand only once. Blank lines part the entries; values can stand above or below the compound they belong to.

Columns and labels:
[1] = molecular target: T1, serotonin 5-HT3 receptor (Homo sapiens, UniProt P46098); test: Serotonin 5-HT3 receptor binding affinity ([3H]-GR-65630 binding inhibition); details: 1 μM test compound, membrane fraction from HEK-293 cells; for inhibition at 1 µM: read-out: [3H]-GR65630 binding inhibition rate at 1 μM
T1 construct: expressed in transfected cells; host or cells: HEK-293 cells (membrane fraction)
T1 sequence (P46098 24-478): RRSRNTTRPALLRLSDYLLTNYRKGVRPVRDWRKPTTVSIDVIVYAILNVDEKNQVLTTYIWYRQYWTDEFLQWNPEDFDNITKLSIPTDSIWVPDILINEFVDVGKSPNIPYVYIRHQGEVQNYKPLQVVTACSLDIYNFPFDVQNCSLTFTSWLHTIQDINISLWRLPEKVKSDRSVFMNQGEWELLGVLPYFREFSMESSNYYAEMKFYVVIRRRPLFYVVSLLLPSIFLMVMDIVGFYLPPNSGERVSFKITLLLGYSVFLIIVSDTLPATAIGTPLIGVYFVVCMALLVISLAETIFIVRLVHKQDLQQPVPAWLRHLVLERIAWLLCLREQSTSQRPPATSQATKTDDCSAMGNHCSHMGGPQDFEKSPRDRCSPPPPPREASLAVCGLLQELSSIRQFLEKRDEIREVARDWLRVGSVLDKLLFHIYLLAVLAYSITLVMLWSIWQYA
Experimental: Serotonin 5-HT3 receptor binding affinities of the urea derivatives of the present invention and typical compounds among known urea derivatives, N-phenyl-4-methylpiperazine-1-carboxyamide (A), N-(4,5-dichlorophenyl)-4-methylppiperazine-1-carboxyamide (B), N-(3,5-trifluoromethylphenyl)-4-methylpiperazine-1-carboxyamide (C), N-(3-fluorophenyl)-4-methylpiperazine-1-carboxyamide (D) and N-(5-chloro-2-methoxyphenyl)-(4-tert-butyloxycarbonylpiperazine)-1-carboxyamide (E), were determined by the following method, and the results are shown in Table 1. The test compounds of the present invention are mentioned with the example numbers.
According to the method of Boess et al. (Neuropharmacology, 36, 637-647, 1997), affinities were examined by using a membrane fraction obtained from HEK-293 cells and a ligand selective to the serotonin 5-HT3 receptor, [3H]-GR-65630 [3-(5-methyl-1H-imidazol-4-yl)-1-(1-methyl-1H-indol-3-yl)-1-propanone] on the basis of inhibitory actions of the test compounds on the specific binding to GR-65630 as an index.

[2] = system: cisplatin-induced emesis in beagles; test: Antiemetic action on cisplatin-induced emesis in dogs; type: in vivo; details: for Number of emesis 0 to 120 (minute) / Number of emesis 121 to 360 (minute) / Time of initial occurrence: 0.5 mg/kg i.v. 30 minutes before cisplatin 3 mg/kg i.v., one value per animal
Experimental: Actions on cisplatin-induced emesis in beagles of 1-(2-hydroxyethyl)-1-methyl-4-(3,5-dichlorophenylcarbamoyl)piperazinium bromide as the compound of the present invention and 5-chloro-2-(1-homopiperazinyl)-7-methylbenzooxazole (F) (International Publication WO00/31073), which is a benzoxazole derivative having a chemical structure similar to that of the novel urea derivative of the present invention among the known serotonin 5-HT3 receptor partially activating agents, were determined by the following method. The compound of the present invention is mentioned with the example number.
After starvation for 16 hours from one day before the day of the test, beagles (each group consisted of two dogs) were given 300 g of feed pellets and intravenously received cisplatin at a dose of 3 mg/kg 30 minutes later. The test compound was intravenously given 30 minutes before the administration of cisplatin, and frequency and time of emesis were monitored over 6 hours.

[3] = molecular target: T2, serotonin 5-HT3 receptor (Cavia porcellus, UniProt O70212); test: Test for serotonin 5-HT3 receptor partially activating action (guinea pig ileum longitudinal muscle contraction); set-up: species or system Hartley guinea pigs; details: for Activating action: guinea pig ileum contraction relative to 2.6 μM serotonin 5-HT; for Antagonistic action: suppression rate of serotonin 5-HT-induced contraction, guinea pig ileum
T2 construct: longitudinal muscle samples were prepared from the ileums of male or female Hartley guinea pigs; from tissue; host or cells: guinea pig ileum longitudinal muscle
T2 sequence (O70212 20-490): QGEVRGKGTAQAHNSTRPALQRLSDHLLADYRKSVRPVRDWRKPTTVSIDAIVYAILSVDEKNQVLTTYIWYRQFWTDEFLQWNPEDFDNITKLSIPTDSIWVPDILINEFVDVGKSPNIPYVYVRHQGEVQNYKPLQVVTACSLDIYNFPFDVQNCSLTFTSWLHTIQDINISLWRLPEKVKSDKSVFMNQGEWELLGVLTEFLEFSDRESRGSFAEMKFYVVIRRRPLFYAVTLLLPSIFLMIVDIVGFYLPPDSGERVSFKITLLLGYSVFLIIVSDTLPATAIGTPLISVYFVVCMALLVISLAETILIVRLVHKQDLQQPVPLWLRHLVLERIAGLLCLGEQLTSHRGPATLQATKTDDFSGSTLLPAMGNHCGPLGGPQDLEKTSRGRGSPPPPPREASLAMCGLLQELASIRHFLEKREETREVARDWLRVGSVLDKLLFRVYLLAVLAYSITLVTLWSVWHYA
Experimental: The serotonin 5-HT3 receptor antagonistic action and the serotonin 5-HT3 receptor activating action of 1-(2-hydroxyethyl)-1-methyl-4-(3,5-dichlorophenylcarbamoyl)piperazinium iodide as the compound of the present invention were determined according to the method of Butler et al. (Br. J. Pharmacol, 94, 397-412, 1988).
About 30-mm longitudinal muscle samples were prepared from the ileums of male or female Hartley guinea pigs (325±25 g). Each sample was hung down in a Magnus tube filled with 10 ml of Krebs solution (pH 7.4, 32° C.) with ventilation of a mixed gas (95% O2, 5% CO2), and loaded with a tension of 1 g, and contractile responses were measured isometrically. The serotonin 5-HT3 receptor activating action of the test compound was represented in terms of a relative value obtained by comparison of the contraction obtained by adding 2.6 μM of serotonin 5-HT to the sample and the contraction of 50% or more obtained within 5 minutes as a percentage based on the maximum contraction. The serotonin 5-HT3 receptor antagonistic action of the test compound was obtained from the contraction suppression rate obtained by adding serotonin 5-HT to the sample.

inhibition at 1 µM [1]: 98%
Compound: COc1ccc(Cl)cc1NC(=O)N1CC[N+](C)(CCO)CC1 [Example 21, 1-(2-Hydroxyethyl)-1-methyl-4-(2-methoxy-5-chlorophenylcarbamoyl)-piperazinium iodide]

Compound: Cc1cc(Cl)cc2nc(N3CCCNCC3)oc12 [F, 5-chloro-2-(1-homopiperazinyl)-7-methylbenzooxazole, reference compound]
Time at which emesis occurred after the administration [2]: ≤ 90 min
Number of emesis 0 to 120 (minute) [2]: 14 and 8
Number of emesis 121 to 360 (minute) [2]: 15 and 6
Time of initial occurrence [2]: 88 min and 79 min

inhibition at 1 µM [1]: 98%
Compound: C[N+]1(CC2CC2)CCN(C(=O)Nc2cc(Cl)cc(Cl)c2)CC1 [Example 13, 1-Cyclopropylmethyl-1-methyl-4-(3,5-dichlorophenylcarbamoyl)-piperazinium bromide]

inhibition at 1 µM [1]: 94%
Compound: COc1ccc(Cl)cc1NC(=O)N1CC[N+](C)(C)CC1 [Example 19, 1,1-Dimethyl-4-(2-methoxy-5-chlorophenylcarbamoyl)piperazinium iodide]

Compound: C[N+]1(CCO)CCN(C(=O)Nc2cc(Cl)cc(Cl)c2)CC1.[Br-] [Example 30, 1-(2-Hydroxyethyl)-1-methyl-4-(3,5-dichlorophenylcarbamoyl)-piperazinium bromide]
Emesis at the initial stage of administration (action on the central nerve system) [2]: no emesis was observed at the initial stage
Suppression of cisplatin-induced emesis in dogs (in words) [2]: effectively suppressed
Number of emesis 0 to 120 (minute) [2]: 0
Number of emesis 121 to 360 (minute) [2]: 1 and 0
Time of initial occurrence [2]: 165 min

inhibition at 1 µM [1]: 98%
Compound: CCC[N+]1(C)CCN(C(=O)Nc2cc(Cl)cc(Cl)c2)CC1 [Example 12, 1-Propyl-1-methyl-4-(3,5-dichlorophenylcarbamoyl)piperazinium bromide]

Activating action ([3]; 1 μM): 0%
Antagonistic action ([3]; 1 μM): 15%
Activating action ([3]; 3 μM): 4%
Antagonistic action ([3]; 3 μM): 30%
Activating action ([3]; 10 μM): 14%
Antagonistic action ([3]; 10 μM): 37%
Activating action ([3]; 30 μM): 31%
Antagonistic action ([3]; 30 μM): 27%
Activating action ([3]; 100 μM): 23%
Antagonistic action ([3]; 100 μM): 36%
inhibition at 1 µM [1]: 104%
Compound: C[N+]1(CCO)CCN(C(=O)Nc2cc(Cl)cc(Cl)c2)CC1.[I-] [Example 11, 1-(2-Hydroxyethyl)-1-methyl-4-(3,5-dichlorophenylcarbamoyl)-piperazinium iodide]
Serotonin 5-HT3 receptor agonist character (in words) ([3]; Table 2): having both the serotonin 5-HT3 receptor antagonistic action and the serotonin 5-HT3 receptor activating action

[3H]-GR65630 binding inhibition rate at 1 μM [1]: 2%
Compound: CN1CCN(C(=O)Nc2cc(C(F)(F)F)cc(C(F)(F)F)c2)CC1 [C, N-(3,5-trifluoromethylphenyl)-4-methylpiperazine-1-carboxyamide, reference compound]

inhibition at 1 µM [1]: 105%
Compound: C=CC[N+]1(C)CCN(C(=O)Nc2cc(Cl)cc(Cl)c2)CC1 [Example 10, 1-Allyl-1-methyl-4-(3,5-dichlorophenylcarbamoyl)piperazinium iodide]

inhibition at 1 µM [1]: 92%
Compound: C=CC[N+]1(C)CCN(C(=O)Nc2cc(Cl)ccc2OC)CC1 [Example 20, 1-Allyl-1-methyl-4-(2-methoxy-5-chlorophenylcarbamoyl)piperazinium iodide]

[3H]-GR65630 binding inhibition rate at 1 μM [1]: 22%
Compound: CN1CCN(C(=O)Nc2ccc(Cl)c(Cl)c2)CC1 [B, N-(4,5-dichlorophenyl)-4-methylppiperazine-1-carboxyamide, reference compound]

[3H]-GR65630 binding inhibition rate at 1 μM [1]: 5%
Compound: COc1ccc(Cl)cc1NC(=O)N1CCN(C(=O)OC(C)(C)C)CC1 [E, N-(5-chloro-2-methoxyphenyl)-(4-tert-butyloxycarbonylpiperazine)-1-carboxyamide, reference compound]

Compound: C[N+]1(C)CCN(C(=O)Nc2cc(Cl)cc(Cl)c2)CC1 [Example 9, 1,1-Dimethyl-4-(3,5-dichlorophenylcarbamoyl)piperazinium iodide]
inhibition at 1 µM [1]: 104%

inhibition at 1 µM [1]: 96%
Compound: C[N+]1(Cc2ccccc2)CCN(C(=O)Nc2cc(Cl)cc(Cl)c2)CC1 [Example 14, 1-Benzyl-1-methyl-4-(3,5-dichlorophenylcarbamoyl)piperazinium bromide]
